According to US20250271426A1, “REDUCTION OF BITTER TASTE OF ACTIVE PHARMACEUTICAL INGREDIENTS AND RELATED ASSAYS AND SCREENING METHODS” (Firmenich Incorporated, priority 2022, published 2025):

Tests used:
Test in all cases: FLIPR calcium assay, cells with promiscuous G protein transfected with bitter receptor cDNA
Format in all cases: cell-based
Conditions in all cases: responsive if cellular response of >10% over baseline, Fluo4-AM
[1] = molecular target: T1, T2R receptor SEQ ID NO: 6 (S6) (Homo sapiens, UniProt P59540)
T1 construct: expressed in transfected cells; host or cells: cells expressing a promiscuous G protein (e.g., G16g44)
T1 sequence (P59540 1-309): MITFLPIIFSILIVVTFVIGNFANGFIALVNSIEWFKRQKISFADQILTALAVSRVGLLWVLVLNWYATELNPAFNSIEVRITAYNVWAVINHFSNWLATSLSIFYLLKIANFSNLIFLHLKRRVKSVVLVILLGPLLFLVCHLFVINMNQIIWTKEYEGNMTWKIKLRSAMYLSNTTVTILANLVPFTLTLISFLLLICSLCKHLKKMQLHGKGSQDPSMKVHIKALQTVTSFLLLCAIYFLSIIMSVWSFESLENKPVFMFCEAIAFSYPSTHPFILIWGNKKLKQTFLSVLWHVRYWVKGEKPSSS
How it was run: (§1)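 Promiscuous G protein (e.g., G16g44)-expressing cells transfected with one bitter receptor cDNA each, 28 h incubation, then Fluo4-AM loading for 60 min and wash. Agonist-evoked intracellular calcium fluorescence recorded on FLIPR; receptor deemed responsive when response exceeded 10% over baseline.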

[2] = molecular target: T2, T2R receptor SEQ ID NO: 2 (S2) (Homo sapiens, UniProt Q9NYW2)
T2 construct: expressed in transfected cells; host or cells: cells expressing a promiscuous G protein (e.g., G16g44)
T2 sequence (Q9NYW2 1-309): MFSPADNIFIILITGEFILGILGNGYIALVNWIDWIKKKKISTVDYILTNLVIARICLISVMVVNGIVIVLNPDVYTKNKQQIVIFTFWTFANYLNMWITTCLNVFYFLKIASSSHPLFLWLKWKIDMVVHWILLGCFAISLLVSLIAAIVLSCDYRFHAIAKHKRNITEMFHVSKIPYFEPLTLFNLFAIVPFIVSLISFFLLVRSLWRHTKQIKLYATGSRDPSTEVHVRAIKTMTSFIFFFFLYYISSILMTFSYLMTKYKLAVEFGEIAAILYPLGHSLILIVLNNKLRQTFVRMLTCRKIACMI
How it was run: as §1

[3] = molecular target: T3, T2R receptor SEQ ID NO: 5 (S5) (Homo sapiens, UniProt P59534)
T3 construct: expressed in transfected cells; host or cells: cells expressing a promiscuous G protein (e.g., G16g44)
T3 sequence (P59534 18-338): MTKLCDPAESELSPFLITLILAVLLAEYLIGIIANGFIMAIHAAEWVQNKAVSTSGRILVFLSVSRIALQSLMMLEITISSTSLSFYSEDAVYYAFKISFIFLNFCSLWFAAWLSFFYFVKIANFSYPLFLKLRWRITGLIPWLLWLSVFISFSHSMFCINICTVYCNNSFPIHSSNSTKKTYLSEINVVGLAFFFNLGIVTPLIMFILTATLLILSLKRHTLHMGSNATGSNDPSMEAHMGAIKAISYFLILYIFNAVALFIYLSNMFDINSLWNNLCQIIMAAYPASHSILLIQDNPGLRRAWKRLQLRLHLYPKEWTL
How it was run: as §1

[4] = molecular target: T4, T2R receptor SEQ ID NO: 3 (S3) (Homo sapiens, UniProt Q9NYW0, T156M)
T4 construct: expressed in transfected cells; host or cells: cells expressing a promiscuous G protein (e.g., G16g44)
T4 sequence (Q9NYW0 1-307 T156M): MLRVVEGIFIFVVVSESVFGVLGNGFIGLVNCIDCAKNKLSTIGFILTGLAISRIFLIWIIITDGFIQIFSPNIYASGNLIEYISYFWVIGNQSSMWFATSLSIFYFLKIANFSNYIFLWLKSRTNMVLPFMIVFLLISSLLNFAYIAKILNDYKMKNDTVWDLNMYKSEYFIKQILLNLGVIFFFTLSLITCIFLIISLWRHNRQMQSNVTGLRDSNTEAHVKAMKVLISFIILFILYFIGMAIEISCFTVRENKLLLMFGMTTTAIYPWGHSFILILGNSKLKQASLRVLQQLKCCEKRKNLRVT
How it was run: as §1

[5] = molecular target: T5, T2R receptor SEQ ID NO: 1 (S1) (Homo sapiens, UniProt Q9NYW7)
T5 construct: expressed in transfected cells; host or cells: cells expressing a promiscuous G protein (e.g., G16g44)
T5 sequence (Q9NYW7 1-299): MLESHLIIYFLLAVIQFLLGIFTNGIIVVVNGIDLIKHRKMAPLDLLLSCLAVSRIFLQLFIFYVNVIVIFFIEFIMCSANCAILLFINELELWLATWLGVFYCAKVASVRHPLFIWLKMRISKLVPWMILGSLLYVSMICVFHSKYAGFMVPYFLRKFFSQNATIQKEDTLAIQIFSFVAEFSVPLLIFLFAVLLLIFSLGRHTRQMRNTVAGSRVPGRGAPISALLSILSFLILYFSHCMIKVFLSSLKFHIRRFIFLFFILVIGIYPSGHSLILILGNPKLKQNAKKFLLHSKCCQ
How it was run: as §1

[6] = molecular target: T6, T2R receptor SEQ ID NO: 4 (S4) (Homo sapiens, UniProt Q9NYV8)
T6 construct: expressed in transfected cells; host or cells: cells expressing a promiscuous G protein (e.g., G16g44)
T6 sequence (Q9NYV8 1-317): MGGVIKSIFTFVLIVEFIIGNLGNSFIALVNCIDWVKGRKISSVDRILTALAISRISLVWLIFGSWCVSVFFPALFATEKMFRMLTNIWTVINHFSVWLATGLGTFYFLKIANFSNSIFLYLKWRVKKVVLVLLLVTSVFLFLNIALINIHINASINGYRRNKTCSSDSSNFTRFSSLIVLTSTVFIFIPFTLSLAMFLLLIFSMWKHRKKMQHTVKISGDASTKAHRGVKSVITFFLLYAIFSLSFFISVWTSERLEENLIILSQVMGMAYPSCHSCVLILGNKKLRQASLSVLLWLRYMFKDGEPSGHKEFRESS
How it was run: as §1

Row | Compound | S6 positive response of T2R receptor to API [1] | S2 positive response of T2R receptor to API [2] | S5 positive response of T2R receptor to API [3] | S3 positive response of T2R receptor to API [4] | S1 positive response of T2R receptor to API [5] | S4 positive response of T2R receptor to API [6]
1 | CC[C@H]1OC(=O)[C@H](C)[C@@H](O[C@H]2C[C@@](C)(OC)[C@@H](O)[C@H](C)O2)[C@H](C)[C@@H](O[C@@H]2O[C@H](C)C[C@H](N(C)C)[C@H]2O)[C@](C)(O)C[C@@H](C)C(=O)[C@H](C)[C@@H](O)[C@]1(C)O [Erythromycin] | + (a “+” to indicate whether a particular T2R receptor showed a positive response to a particular API) | + (a “+” to indicate whether a particular T2R receptor showed a positive response to a particular API) | + (a “+” to indicate whether a particular T2R receptor showed a positive response to a particular API) | + (a “+” to indicate whether a particular T2R receptor showed a positive response to a particular API) |  | 
2 | CN1CCN(CC(=O)N2c3ccccc3C(=O)Nc3cccnc32)CC1 [Pirenzepine] | + (a “+” to indicate whether a particular T2R receptor showed a positive response to a particular API) | + (a “+” to indicate whether a particular T2R receptor showed a positive response to a particular API) | + (a “+” to indicate whether a particular T2R receptor showed a positive response to a particular API) | + (a “+” to indicate whether a particular T2R receptor showed a positive response to a particular API) |  | 
3 | COc1ccc([C@@H]2Sc3ccccc3N(CCN(C)C)C(=O)[C@@H]2OC(C)=O)cc1 [Diltiazem] | + (a “+” to indicate whether a particular T2R receptor showed a positive response to a particular API) | + (a “+” to indicate whether a particular T2R receptor showed a positive response to a particular API) |  | + (a “+” to indicate whether a particular T2R receptor showed a positive response to a particular API) | + (a “+” to indicate whether a particular T2R receptor showed a positive response to a particular API) | + (a “+” to indicate whether a particular T2R receptor showed a positive response to a particular API)
4 | C[C@]12C=CC(=O)C=C1CC[C@@H]1[C@@H]2C(=O)C[C@@]2(C)[C@H]1CC[C@]2(O)C(=O)CO [Prednisone] | + (a “+” to indicate whether a particular T2R receptor showed a positive response to a particular API) | + (a “+” to indicate whether a particular T2R receptor showed a positive response to a particular API) |  | + (a “+” to indicate whether a particular T2R receptor showed a positive response to a particular API) | + (a “+” to indicate whether a particular T2R receptor showed a positive response to a particular API) | + (a “+” to indicate whether a particular T2R receptor showed a positive response to a particular API)
5 | COc1cc(Cc2cnc(N)nc2N)cc(OC)c1OC [Trimethoprim] | + (a “+” to indicate whether a particular T2R receptor showed a positive response to a particular API) | + (a “+” to indicate whether a particular T2R receptor showed a positive response to a particular API) | + (a “+” to indicate whether a particular T2R receptor showed a positive response to a particular API) | + (a “+” to indicate whether a particular T2R receptor showed a positive response to a particular API) |  | 
